Measurements from paper PMC8273886 (Journal of Medicinal Chemistry, 2021).
Values joined by “and” are separate entries in the source; they are usually repeats but may differ in a detail not shown here. Identical values can stand only once. “Also recorded” adds a separate entry of the source. Bridge positions count the residues as written; N and C are the ends. Square brackets hold non-standard residues; d marks the D form. Peptide text beside a SMILES is read from it.

Key:
[1] = Peptide stability in simulated gastric fluid; format: in vitro ADME; conditions: SGF pH 1.2 with pepsin, 37 °C
[2] = biological target: T1, mouse KOR (Mus musculus, UniProt P33534); assay: Functional cAMP assay; format: cell-based; conditions: for KOR activation in cAMP assay (in words): HEK293 cells stably expressing mouse KOR; for Emax: normalized to dyn A 1–13 = 100%, read-out: efficacy cAMP Emax ± SD
[3] = biological target: T1, mouse KOR; assay: Radioligand competition binding assay ([3H]-diprenorphine displacement); conditions: 1 nM [3H]-diprenorphine, HEK293 cell membranes stably expressing mouse KOR; read-out: affinity Ki ± SD
[4] = biological target: T2, mouse KOR-EGFP and β-arrestin-2-nano-luciferase (Mus musculus, UniProt P33534); assay: BRET β-arrestin-2 recruitment assay; format: cell-based; conditions: normalized to maximum recruitment of dyn A 1–13
T2 construct: expressed in transfected cells; host or cells: HEK293 (transient, jetPRIME)

[5] = system: motor coordination in mice; conditions: mouse, in vivo, ip, 5 mg/kg
[6] = system: colonic nociceptors from CVH mice; assay: Ex vivo assessment of colonic nociceptor mechanosensitivity; set-up: species or system mouse
Method: Single-unit extracellular recordings from splanchnic colonic afferent nerves were performed as previously described.[42],[43],[45],[46],[78] […] The tissue was transferred to ice-cold Krebs solution, and after further dissection, the distal colon was opened longitudinally and pinned flat with its mucosal side up in a specialized, SYLGARD 184-lined (Dow Corning Corp., Midland, MI) organ bath consisting of two adjacent, clear acrylic compartments (Danz Instrument Service, Adelaide, South Australia, Australia). The neurovascular bundle containing the splanchnic nerve was extended from the tissue compartment and laid onto a mirror in the recording compartment. A movable wall with a small “mouse hole” was lowered into position to allow passage of the nerves, and the recording chamber was filled with paraffin oil. The colonic compartment was superfused with a modified Krebs solution (117.9 mM NaCl, 4.7 mM KCl, 25 mM NaHCO3, 1.3 mM NaH2PO4, 1.2 mM MgSO4(H2O)7, 2.5 mM CaCl2, and 11.1 mM D-glucose) and gassed with carbogen (95% O2 and 5% CO2) at a temperature of 34 °C. Smooth muscle activity and endogenous prostaglandins were suppressed by the addition of the L-type calcium channel antagonist nifedipine (1 μM) and prostaglandin synthesis inhibitor indomethacin (3 μM), respectively. […]

Row | Compound | Emax [2] [%] | Ki [3] [µM] | further results
1 | CC[C@H](C)[C@H](NC(=O)[C@H](CCCN=C(N)N)NC(=O)[C@H](CCCN=C(N)N)NC(=O)[C@H](CC(C)C)NC(=O)[C@H](Cc1ccccc1)NC(=O)CNC(=O)CNC(=O)[C@@H](N)Cc1ccc(O)cc1)C(=O)N[C@@H](CCCN=C(N)N)C(=O)N1CCC[C@H]1C(=O)N[C@@H](CCCCN)C(=O)N[C@@H](CC(C)C)C(=O)N[C@@H](CCCCN)C(N)=O [dyn A 1–13] |  |  | degradation in simulated gastric fluid (in words) [1]: fully degraded after 15 min
2 | CC[C@H](C)[C@@H]1NC(=O)[C@H](CCCNC(=N)N)NC(=O)[C@H](CCCNC(=N)N)NC(=O)[C@H](CC(C)C)NC(=O)[C@H](Cc2ccccc2)NC(=O)CNC(=O)CNC(=O)[C@H](Cc2ccc(O)cc2)NC(=O)[C@@H]2CSSC[C@H](NC(=O)[C@H](CCCCN)NC(=O)[C@H](CC(C)C)NC(=O)[C@H](CCCCN)NC(=O)[C@@H]3CCCN3C(=O)[C@H](CCCNC(=N)N)NC1=O)C(=O)N[C@@H](Cc1ccccc1)C(=O)N1CCC[C@H]1C(=O)N[C@@H](CC(=O)O)C(=O)NCC(=O)N[C@@H](CCCNC(=N)N)C(=O)N2 [helianorphin-1] | 106 ± 8.4 |  | KOR activation in cAMP assay (in words) [2]: fully activated the receptor
3 | CC[C@H](C)[C@@H]1NC(=O)[C@H](CCCNC(=N)N)NC(=O)[C@H](CCCNC(=N)N)NC(=O)[C@H](CC(C)C)NC(=O)[C@H](Cc2ccccc2)NC(=O)CNC(=O)CNC(=O)[C@H](Cc2ccc(O)cc2)NC(=O)[C@@H]2CSSC[C@H](NC(=O)[C@H](CCCCN)NC(=O)[C@H](CC(C)C)NC(=O)[C@H](CCCCN)NC(=O)[C@@H]3CCCN3C(=O)[C@H](CCCNC(=N)N)NC1=O)C(=O)N[C@@H]([C@@H](C)O)C(=O)N[C@@H](CCCCN)C(=O)N[C@@H](CO)C(=O)N[C@@H]([C@@H](C)CC)C(=O)N1CCC[C@H]1C(=O)N1CCC[C@H]1C(=O)N[C@@H]([C@@H](C)CC)C(=O)N2 [helianorphin-2] (cyclo(CTKSIPPICYGGFLRRIRPKLK); disulfide 1-9) | 102 ± 10 |  | KOR activation in cAMP assay (in words) [2]: fully activated the receptor
4 | CC[C@H](C)[C@@H]1NC(=O)[C@H](CCCNC(=N)N)NC(=O)[C@H](CCCNC(=N)N)NC(=O)[C@H](CC(C)C)NC(=O)[C@H](Cc2ccccc2)NC(=O)CNC(=O)CNC(=O)[C@H](Cc2ccc(O)cc2)NC(=O)[C@@H]2CSSC[C@H](NC1=O)C(=O)N[C@@H](Cc1ccccc1)C(=O)N1CCC[C@H]1C(=O)N[C@@H](CC(=O)O)C(=O)NCC(=O)N[C@@H](CCCNC(=N)N)C(=O)N2 [helianorphin-3] | 85.1 ± 1.8 |  | 
5 | CC[C@H](C)[C@@H]1NC(=O)[C@H](CCCNC(=N)N)NC(=O)[C@H](CCCNC(=N)N)NC(=O)[C@H](CC(C)C)NC(=O)[C@H](Cc2ccccc2)NC(=O)CNC(=O)CNC(=O)[C@H](Cc2ccc(O)cc2)NC(=O)[C@@H]2CSSC[C@H](NC1=O)C(=O)N[C@@H]([C@@H](C)O)C(=O)N[C@@H](CCCCN)C(=O)N[C@@H](CO)C(=O)N[C@@H]([C@@H](C)CC)C(=O)N1CCC[C@H]1C(=O)N1CCC[C@H]1C(=O)N[C@@H]([C@@H](C)CC)C(=O)N2 [helianorphin-4] (cyclo(CTKSIPPICYGGFLRRI); disulfide 1-9) | 87.8 ± 33 |  | 
6 | CC[C@H](C)[C@@H]1NC(=O)[C@H](CCCNC(=N)N)NC(=O)[C@H](CC(C)C)NC(=O)[C@H](Cc2ccccc2)NC(=O)CNC(=O)CNC(=O)[C@H](Cc2ccc(O)cc2)NC(=O)[C@@H]2CSSC[C@H](NC1=O)C(=O)N[C@@H](Cc1ccccc1)C(=O)N1CCC[C@H]1C(=O)N[C@@H](CC(=O)O)C(=O)NCC(=O)N[C@@H](CCCNC(=N)N)C(=O)N2 [helianorphin-5] (cyclo(CFPDGRCYGGFLRI); disulfide 1-7) |  | > 10 | 
7 | CC(C)C[C@@H]1NC(=O)[C@H](Cc2ccccc2)NC(=O)CNC(=O)CNC(=O)[C@H](Cc2ccc(O)cc2)NC(=O)[C@H]([C@@H](C)O)NC(=O)[C@@H]2CSSC[C@H](NC(=O)[C@H](CCCNC(=N)N)NC1=O)C(=O)N[C@@H](Cc1ccccc1)C(=O)N1CCC[C@H]1C(=O)N[C@@H](CC(=O)O)C(=O)NCC(=O)N[C@@H](CCCNC(=N)N)C(=O)N2 [helianorphin-6] (cyclo(CFPDGRCTYGGFLR); disulfide 1-7) |  | > 10 | 
8 | CC[C@H](C)[C@@H]1NC(=O)[C@@H]2CCCN2C(=O)[C@@H]2CCCN2C(=O)[C@H]([C@@H](C)CC)NC(=O)[C@H](CO)NC(=O)[C@H](C)NC(=O)[C@H]([C@@H](C)O)NC(=O)[C@@H]2CSSC[C@H](NC1=O)C(=O)N[C@@H](Cc1ccc(O)cc1)C(=O)NCC(=O)NCC(=O)N[C@@H](Cc1ccccc1)C(=O)N[C@@H](CC(C)C)C(=O)N[C@@H](CCCNC(=N)N)C(=O)N2 [helianorphin-7] (cyclo(ASIPPICYGGFLRCT); disulfide 7-14) |  | > 10 | 
9 | CC[C@H](C)[C@@H]1NC(=O)[C@@H]2CCCN2C(=O)[C@@H](CCCCN)NC(=O)[C@@H](CC(C)C)NC(=O)[C@@H](Cc2ccccc2)NC(=O)[C@@H](Cc2ccccc2)NC(=O)[C@H]([C@@H](C)O)NC(=O)[C@@H]2CSSC[C@H](NC1=O)C(=O)N[C@@H](Cc1ccccc1)C(=O)N1CCC[C@H]1C(=O)N[C@@H](CC(=O)O)C(=O)NCC(=O)N[C@@H](CCCNC(=N)N)C(=O)N2 [helianorphin-10] (cyclo(CFPDGRCT[dF][dF][dL][dK]PI); disulfide 1-7) |  | > 10 | 
10 | CCCC[C@H]1NC(=O)[C@@H](Cc2ccccc2)NC(=O)[C@@H](Cc2ccccc2)NC(=O)[C@H]([C@@H](C)O)NC(=O)[C@@H]2CSSC[C@H](NC(=O)[C@H]([C@@H](C)CC)NC(=O)[C@@H]3CCCN3C(=O)[C@@H](CCCNC(=N)N)NC1=O)C(=O)N[C@@H](Cc1ccccc1)C(=O)N1CCC[C@H]1C(=O)N[C@@H](CC(=O)O)C(=O)NCC(=O)N[C@@H](CCCNC(=N)N)C(=O)N2 [helianorphin-12] | 117 ± 12 |  | KOR activation in cAMP assay (in words) [2]: fully activates the KOR
11 | CC[C@H](C)[C@@H]1NC(=O)[C@@H]2CSSC[C@H](NC(=O)[C@H](CCCCN)NC(=O)[C@H](CC(C)C)NC(=O)[C@H](CCCCN)NC(=O)[C@@H]3CCCN3C(=O)[C@H](CCCNC(=N)N)NC1=O)C(=O)N[C@@H](Cc1ccc(O)cc1)C(=O)NCC(=O)NCC(=O)N[C@@H](Cc1ccccc1)C(=O)N[C@@H](CC(C)C)C(=O)N[C@@H](CCCNC(=N)N)C(=O)N[C@@H](CCCNC(=N)N)C(=O)N2 [helianorphin-19] (cyclo(CIRPKLKCYGGFLRR); disulfide 1-8) | 108 ± 11 |  | β-arrestin-2 recruitment Emax [4]: 41.1 ± 3.7% and 41%; rotarod performance (latency to fall) [5]: did not impair rotarod performance
12 | Oc1ccc2c3c1O[C@H]1c4[nH]c5c(c4C[C@@]4(O)[C@@H](C2)N(CC2CC2)CC[C@]314)C[C@@]1(O)[C@H]2Cc3ccc(O)c4c3[C@@]1(CCN2CC1CC1)[C@H]5O4 [nor-BNI, norbinaltorphimine] |  |  | effect on helianorphin-19-induced inhibition of colonic nociceptor mechanosensitivity ([6]; 0.1 μM nor-BNI plus 1 μM helianorphin-19): prevented helianorphin-19-induced inhibition of colonic nociceptor mechanosensitivity; also recorded: did block helianorphin-19 (1 μM)-induced inhibition of colonic nociceptor action potential firing; colonic nociceptor mechanosensitivity, antagonist alone ([6]; 0.1 μM, 5 min pre-incubation): did not affect CVH colonic nociceptor responses to mechanical stimuli; also recorded: did not affect nociceptor mechanosensitivity
